Measured values from US20190134039A1, “ANTIVIRAL JAK INHIBITORS USEFUL IN TREATING OR PREVENTING RETROVIRAL AND OTHER VIRAL INFECTIONS” (EMORY UNIVERSITY, priority 2011, published 2019).
Like-named read-outs stand apart in the source and are kept apart here.

Legend:
[1] = test system: acute infection in rhesus macaque lymphocytes; assay: cells; settings: Macaca mulatta, Lymphocyte
Text: (§1) The data (Shown in Table 5 below) are mean and standard deviations from at least three independent experiments.

[2] = test system: acute infection in rhesus macaque macrophages; assay: cells; settings: for EC90: read-out: Acute infection in rhesus macaque macrophages EC90
Text: as §1

pSTAT1 = assay: cells
Vero cells = assay: cells; settings: Chlorocebus sabaeus, read-out: IC50 in Vero cells *MTT Assay
wild-type HIV-1xxLAI = assay: Antiviral potency in primary human lymphocytes, wild type; format: cell-based; settings: Human immunodeficiency virus 1, Lymphocyte, xxLAI, primary human lymphocytes
[3] = test system: HIV-1 containing A62V/V75I/F77L/F116Y/Q151M; assay: microbe, parasite or virus in culture; format: cell-based
pSTAT5 = assay: cells
[4] = test system: PHA+IL-2 stimulated primary human lymphocytes; assay: Proliferation and viability of PHA+IL-2 stimulated primary human lymphocytes; format: cell-based; settings: PHA+IL-2 stimulated lymphocytes, 5 days
Description: (§2) The effect of various Jak inhibitors on proliferation and viability of PHA or PHA+IL-2 stimulated primary human lymphocytes was evaluated using the techniques described above.
(§3) For all experiments, cells were incubated with media alone or drug-containing medium for 5 days prior to assessment of cell count and viability. Data are mean and standard deviations for at least three independent experiments conducted with at least 4 pooled donors, and duplicates within each experiment.

latent HIV-1 [5] = assay: Reactivation of latent HIV-1, J-Lat latency T cell system; format: cell-based; settings: concentrations found during steady-state or Cmax in vivo
PHA + IL-2 PBM cells = assay: cells; settings: Homo sapiens, PBMC, read-out: IC50 in PHA + IL-2 PBM cells *MTT Assay
latent HIV-1 [6] = assay: Reactivation of latent HIV-1, primary central memory-based T cell latency model; settings: concentrations found during steady-state or Cmax in vivo
PHA stimulated PBM cells = assay: cells; settings: Homo sapiens, PBMC, read-out: IC50 in PHA stimulated PBM cells *MTT Assay
[7] = test system: PHA stimulated primary human lymphocytes; assay: Proliferation and viability of PHA stimulated primary human lymphocytes; format: cell-based; settings: 5 days, all concentrations
Description: as §2, §3

HIV-1 containing K65R = assay: microbe, parasite or virus in culture; format: cell-based
HIV-1 containing M184V = assay: microbe, parasite or virus in culture; format: cell-based
PBM cells = assay: cells; settings: Homo sapiens, PBMC, read-out: IC50 in PBM cells *Propidium Iodide assay
HIV-2 = assay: microbe, parasite or virus in culture; settings: Human immunodeficiency virus 2, PBMC
latent HIV-1 [8] = assay: Reactivation of latent HIV-1 in primary human macrophages (PMA, p24 ELISA); format: cell-based; settings: drug applied during reactivation, removed thereafter, within 72 hr post reactivation
HIV-1 containing L74V = assay: microbe, parasite or virus in culture; format: cell-based
HIV-1BaL = assay: microbe, parasite or virus in culture; settings: Human immunodeficiency virus 1, Macrophage, in Homo sapiens
Description: Macrophages were isolated as follows: Monocytes were isolated from buffy coats of HIV-1 negative, HBV/HCV-negative donors with density gradient centrifugation coupled with enrichment for CD14+ monocytes with Rosette Sep antibody cocktail (Stem Cell Technologies, Vancouver, British Columbia). Cells were seeded at a concentration of 1.0×10^6 cells/well for 1 hr at 37° C. and 5% CO2 to confer plastic adherence prior to repeated washes with 1×PBS. Macrophages were maintained in medium containing 100 U/ml macrophage colony-stimulating factor (m-CSF, R&D Systems, Minneapolis, Minn.), supplemented with 20% fetal calf serum (Atlanta Biologicals, Lawrenceville, Ga.) and 1% penicillin/streptomyocin (Invitrogen, Carlsbad, Calif.) for 7 days (37° C., 5% CO2) prior to testing.
Macrophage infections: Macrophages were cultured as described above for 7 days. […] 4 hrs after infection, virus was removed and drug-containing medium was returned to the cultures. Supernatants were collected on day 7 post-infection and HIV-1 p24 was quantified via ELISA (Zeptometrix Corporation, Buffalo, N.Y.). EC50 analysis was performed using CalcuSyn software (BioSoft Corporation, Cambridge, UK).

pSTAT3 = assay: cells
CEM cells = assay: cells; settings: Homo sapiens, CCRF-CEM, read-out: IC50 in CEM cells *MTT Assay
[9] = test system: HIV-1 containing 4xAZT (D67N/K70R/T215Y/K219Q); assay: microbe, parasite or virus in culture; format: cell-based
[10] = Human immunodeficiency virus 1, Lymphocyte

N#CC[C@H](C1CCCC1)n1cc(-c2ncnc3[nH]ccc23)cn1 [Jakafi, Ruxolitinib]
EC50 ([1]; read-out: Acute infection in rhesus macaque lymphocytes EC50): 90 ± 100 nM | EC90 ([1]; read-out: Acute infection in rhesus macaque lymphocytes EC90): 1300 ± 800 nM | EC50 ([2]; Macaca mulatta, Macrophage, read-out: Acute infection in rhesus macaque macrophages EC50): ~400 nM | EC90 ([2]; Macaca mulatta, Macrophage): ~4000 nM | EC90 [2]: 4200 ± 1300 nM | EC50 (pSTAT1; read-out: EC50 pSTAT1): < 10 nM | EC90 (pSTAT1; read-out: EC90 pSTAT1): < 10 nM | IC50 (Vero cells): 29300 ± 3700 nM | EC50 (wild-type HIV-1xxLAI; read-out: EC50): 300 ± 300 nM | EC90 (wild-type HIV-1xxLAI; read-out: EC90): 6100 ± 7600 nM | FI50 (ratio of EC50 against mutant virus:EC50 against wild-type xxLAI) ([3]; A62V/V75I/F77L/F116Y/Q151M): 0.1 | FI90 (ratio of EC90 against mutant virus:EC90 against wild-type xxLAI) ([3]; A62V/V75I/F77L/F116Y/Q151M): 0.3 | EC50 [3, 10]: 30 ± 20 nM | EC90 [3, 10]: 1500 ± 1500 nM | EC50 (pSTAT5; read-out: EC50 pSTAT5): < 10 nM | EC90 (pSTAT5; read-out: EC90 pSTAT5): < 10 nM | proliferation versus cells exposed to media alone ([4]; 1.0 μM): significantly inhibited | viability versus cells exposed to media alone ([4]; all concentrations): not significantly different | inhibition of reactivation of latent HIV-1 (latent HIV-1 [5]): ≥ 50% | CC50 (PHA + IL-2 PBM cells): 3100 ± 1700 nM | inhibition of reactivation of latent HIV-1 (latent HIV-1 [6]): ≥ 50% | IC50 (PHA stimulated PBM cells): 9100 ± 1300 nM | proliferation versus cells exposed to media alone [7]: not significantly different | viability versus cells exposed to media alone [7]: not significantly different | EC50 (HIV-1 containing K65R; [10]): 200 ± 300 nM | EC90 (HIV-1 containing K65R; [10]): 8500 ± 8100 nM | FI50 (ratio of EC50 against mutant virus:EC50 against wild-type xxLAI) (HIV-1 containing K65R; K65R): 0.8 | FI90 (ratio of EC90 against mutant virus:EC90 against wild-type xxLAI) (HIV-1 containing K65R; K65R): 1.4 | EC90 (HIV-1 containing M184V; [10]): 3200 ± 2300 nM | FI50 (ratio of EC50 against mutant virus:EC50 against wild-type xxLAI) (HIV-1 containing M184V; M184V): 1.3 | FI90 (ratio of EC90 against mutant virus:EC90 against wild-type xxLAI) (HIV-1 containing M184V; M184V): 0.5 | IC50 (PBM cells): > 50000 nM | EC50 (HIV-2; read-out: Anti-HIV-2 EC50 in acutely infected PBM cells): 20 ± 10 nM | EC90 (HIV-2; read-out: Anti-HIV-2 EC90 in acutely infected PBM cells): 400 ± 200 nM | percent inhibition of reactivation of latent HIV-1 versus no drug control (latent HIV-1 [8]): ~35% | EC50 (HIV-1 containing L74V; [10]): 100 ± 200 nM | EC90 (HIV-1 containing L74V; [10]): 3200 ± 2600 nM | FI50 (ratio of EC50 against mutant virus:EC50 against wild-type xxLAI) (HIV-1 containing L74V; L74V): 0.5 | FI90 (ratio of EC90 against mutant virus:EC90 against wild-type xxLAI) (HIV-1 containing L74V; L74V): 0.5 | EC50 (HIV-1BaL; read-out: Anti-HIV-1 EC50 in acutely infected MΦ): 300 ± 100 nM | EC90 (HIV-1BaL; read-out: Anti-HIV-1 EC90 in acutely infected MΦ): 3100 ± 1800 nM | EC50 (pSTAT3; read-out: EC50 pSTAT3): < 10 nM | EC90 (pSTAT3; read-out: EC90 pSTAT3): 10 nM | IC50 (CEM cells): 11800 ± 1100 nM | FI50 (ratio of EC50 against mutant virus:EC50 against wild-type xxLAI) ([9]; 4xAZT (D67N/K70R/T215Y/K219Q)): 0.3 | FI90 (ratio of EC90 against mutant virus:EC90 against wild-type xxLAI) ([9]; 4xAZT (D67N/K70R/T215Y/K219Q)): 0.4 | EC50 [9, 10]: 90 ± 100 nM | EC90 [9, 10]: 2400 ± 2000 nM
